Experimental data published in patent US20220395495A1 (priority 2019, published 2022).

Experiments:
Mtb H37Rv [1] = test: Guinea pig infection model of tuberculosis, lung bacterial burden, Inh with or without CQ; assay type: in vivo, Outbred Hartley guinea pigs; details: Guinea pigs (FIG. 1F)
Mtb H37Rv [2] = test: Mouse chronic infection model of tuberculosis, lung bacterial CFU, Inh or Rif with or without CQ; assay type: in vivo, BALB/c mice; details: mice, 10 mg/kg chloroquine added to first line TB drug (FIGS. 1B, 1C)
TB = test: Direct in vitro activity on TB
[3] = Plasma concentrations and exposures of CQ by intraperitoneal or oral route; details: in vivo
Mtb within macrophages = test: Drug tolerance and killing of Mtb within macrophages; assay type: cell-based; details: by deacidification
Mtb H37Rv [4] = test: Dexamethasone-induced reactivation (relapse) of Mtb in the lungs of chronically infected BALB/c mice after treatment; assay type: in vivo

SMILES	Bacterial killing and efficacy on addition of chloroquine to Isoniazid (Mtb H37Rv [1])	Bacterial killing and efficacy on addition of chloroquine to Isoniazid (H) or Rifampicin (R) (Mtb H37Rv [2])	Direct in vitro activity on TB (TB)	Plasma concentrations and exposures, intraperitoneal versus oral route [3]	Effect on phenotypic drug tolerance and killing of Mtb within macrophages (Mtb within macrophages)	Average log10CFU per lung (Mtb H37Rv [4]; reactivated Mtb in lungs after dexamethasone immunosuppression, 22nd week p.i., average over relapsed animals)	Percentage relapse (Mtb H37Rv [4]; treatment stopped at 12 weeks p.i., 8 weeks without treatment, then dexamethasone 10 mg/kg i.p. x4 over 2 weeks, lungs at 22nd week p.i., n=5)
CCN(CC)CCCC(C)Nc1ccnc2cc(Cl)ccc12 (stereo not shown) [Chloroquine]	enhanced bacterial killing and efficacy	enhanced bacterial killing and efficacy	no or limited direct in vitro activity on TB	nearly equivalent plasma concentrations and exposures	counteracts phenotypic drug tolerance and accelerates killing of Mtb within macrophages		
NNC(=O)c1ccncc1 [Inh alone, Isoniazid]						4.2 (n = 5) log10CFU per lung	100% (5/5)
